For 19 compounds, IC50 results are on record in patent publication US20240158393A1, “PYRIDONE COMPOUNDS AND METHODS OF USE” (Exelixis, Inc., priority 2021, published 2024).

Each structure is given as a SMILES string.

In one assay the target is T1, Human Axl (Homo sapiens, UniProt P30530).
T1 construct: Human AXL (residues 464-885)
T1 sequence (P30530 1-894 Q764R): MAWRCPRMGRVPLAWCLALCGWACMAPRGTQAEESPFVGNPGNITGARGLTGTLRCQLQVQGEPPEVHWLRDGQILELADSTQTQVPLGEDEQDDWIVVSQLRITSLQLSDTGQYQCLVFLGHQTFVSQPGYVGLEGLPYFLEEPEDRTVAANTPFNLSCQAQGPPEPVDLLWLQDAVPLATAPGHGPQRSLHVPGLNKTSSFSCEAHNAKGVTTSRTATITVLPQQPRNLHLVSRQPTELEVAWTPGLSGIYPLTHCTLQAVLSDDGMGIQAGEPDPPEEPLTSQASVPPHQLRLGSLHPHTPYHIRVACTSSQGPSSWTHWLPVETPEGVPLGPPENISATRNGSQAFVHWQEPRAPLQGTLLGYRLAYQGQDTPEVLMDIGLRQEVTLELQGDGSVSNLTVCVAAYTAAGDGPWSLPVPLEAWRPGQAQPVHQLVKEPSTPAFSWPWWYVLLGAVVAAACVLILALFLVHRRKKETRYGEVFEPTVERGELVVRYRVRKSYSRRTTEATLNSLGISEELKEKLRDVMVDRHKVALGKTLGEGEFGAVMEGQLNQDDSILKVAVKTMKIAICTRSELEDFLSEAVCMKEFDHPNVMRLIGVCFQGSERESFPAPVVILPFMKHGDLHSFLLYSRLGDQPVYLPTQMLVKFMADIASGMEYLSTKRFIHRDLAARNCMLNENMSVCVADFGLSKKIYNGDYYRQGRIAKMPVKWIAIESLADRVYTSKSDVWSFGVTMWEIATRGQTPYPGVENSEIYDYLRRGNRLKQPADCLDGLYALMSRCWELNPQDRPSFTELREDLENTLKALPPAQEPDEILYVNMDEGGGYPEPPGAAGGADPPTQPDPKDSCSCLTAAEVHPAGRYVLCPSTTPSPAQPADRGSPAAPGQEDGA
Kind of assay: Human AXL kinase assay (33P radiometric / HTRF KinEase). It is filed as biochemical. Particulars: protocols of Examples A-1 and/or A-2. (TR-FRET usually uses a lanthanide donor and a delayed reading to cut background.)

The target in another assay is T2, Human KDR (Homo sapiens, UniProt P35968).
T2 construct: Human KDR (residues K790-V1356, 55 nM); purchased Eurofins Pharma Discovery Services UK Limited (KinaseProfiler, B-1) and/or CarnaBio (B-2)
T2 sequence (P35968 790-1356): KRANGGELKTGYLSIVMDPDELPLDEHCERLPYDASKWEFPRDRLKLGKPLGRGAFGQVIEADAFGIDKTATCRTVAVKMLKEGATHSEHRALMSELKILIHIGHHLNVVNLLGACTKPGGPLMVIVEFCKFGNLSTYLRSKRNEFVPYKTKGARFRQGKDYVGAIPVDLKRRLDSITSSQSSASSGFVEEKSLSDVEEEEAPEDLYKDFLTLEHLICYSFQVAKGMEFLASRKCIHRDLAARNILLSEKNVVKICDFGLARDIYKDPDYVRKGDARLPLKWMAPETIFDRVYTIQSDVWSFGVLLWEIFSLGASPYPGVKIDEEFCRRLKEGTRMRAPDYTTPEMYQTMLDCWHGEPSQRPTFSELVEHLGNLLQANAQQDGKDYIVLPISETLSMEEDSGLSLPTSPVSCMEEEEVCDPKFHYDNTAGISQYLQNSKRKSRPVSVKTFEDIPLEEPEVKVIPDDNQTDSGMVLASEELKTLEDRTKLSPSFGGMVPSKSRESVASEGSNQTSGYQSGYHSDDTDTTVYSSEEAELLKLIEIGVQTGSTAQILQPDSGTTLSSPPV
Kind of assay: Human KDR kinase assay (33P radiometric / HTRF KinEase). It is filed as biochemical. Particulars: protocols of Examples B-1 and/or B-2. An outline of the steps: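 Radiometric: KDR K790-V1356 (55 nM), MOPS pH 7.0, myelin basic protein, 10 μM [γ-33P]ATP, 40 min at room temperature, filter-bound 33P counted; nine half-log doses, top 1 μM. HTRF: KDR 790-1356, 1 μM biotinylated peptide, ATP at Km (4.0 μM), 40 min, 10 doses. IC50 from logistic fits.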

Take `COc1cc2nccc(Oc3cc(F)c(NC(=O)c4c(C)n(C)c(C)c(C5CC5)c4=O)cc3F)c2nc1OC` [Compound 47, 5-Cyclopropyl-N-[4-[(6,7-dimethoxy-1,5-naphthyridin-4-yl)oxy]-2,5-difluorophenyl]-1,2,6-trimethyl-4-oxopyridine-3-carboxamide]: the IC50 (commonly the point on the concentration scale where inhibition reaches its midpoint) is no more than 100 nM against Human Axl and greater than 300 nM against Human KDR.

Turning to `COc1cc2nccc(Oc3ccc(NC(=O)c4c(C)n(C)c(C)c(C5CC5)c4=O)cc3)c2nc1OC` [Compound 48, 5-Cyclopropyl-N-[4-[(6,7-dimethoxy-1,5-naphthyridin-4-yl)oxy]phenyl]-1,2,6-trimethyl-4-oxopyridine-3-carboxamide], the IC50 against Human Axl is no more than 100 nM; against Human KDR, greater than 300 nM.

For the compound `COc1cc2nccc(Oc3ccc(NC(=O)c4c(C)n(C)c(C)c(/C=C/C(C)(C)C)c4=O)cc3F)c2nc1OC` [Compound 49, N-[4-[(6,7-Dimethoxy-1,5-naphthyridin-4-yl)oxy]-3-fluorophenyl]-5-[(E)-3,3-dimethylbut-1-enyl]-1,2,6-trimethyl-4-oxopyridine-3-carboxamide], the IC50 against Human Axl and at Human KDR was no more than 100 nM each time.

For `COc1cc2nccc(Oc3ccc(NC(=O)c4c(C)n(C)c(C)c(/C=C/C5CC5)c4=O)cc3F)c2nc1OC` [Compound 50, 5-[(E)-2-Cyclopropylethenyl]-N-[4-[(6,7-dimethoxy-1,5-naphthyridin-4-yl)oxy]-3-fluorophenyl]-1,2,6-trimethyl-4-oxopyridine-3-carboxamide], the IC50 against Human Axl was no more than 100 nM; at Human KDR, greater than 300 nM.

Regarding `COCCOc1cc2nccc(Oc3ccc(NC(=O)c4c(C)n(C)c(C)c(/C=C/C5CC5)c4=O)cc3F)c2nc1OC` [Compound 51, 5-[(E)-2-Cyclopropylethenyl]-N-[3-fluoro-4-[[6-methoxy-7-(2-methoxyethoxy)-1,5-naphthyridin-4-yl]oxy]phenyl]-1,2,6-trimethyl-4-oxopyridine-3-carboxamide], the IC50 is no more than 100 nM at Human Axl and greater than 300 nM against Human KDR.

For `COc1cc2nccc(Oc3ccc(NC(=O)c4c5n(c(C)c(C6=CCOCC6)c4=O)CCOC5)cc3F)c2nc1OC` [Compound 79, 7-(3,6-Dihydro-2H-pyran-4-yl)-N-[4-[(6,7-dimethoxy-1,5-naphthyridin-4-yl)oxy]-3-fluorophenyl]-6-methyl-8-oxo-3,4-dihydro-1H-pyrido[2,1-c][1,4]oxazine-9-carboxamide], the IC50 at Human Axl is no more than 100 nM; on Human KDR, greater than 300 nM.

For `COc1cc2nccc(Oc3ccc(NC(=O)c4c5n(c(C)c(C6=CCCCC6)c4=O)CCOC5)cc3F)c2nc1OC` [Compound 80, 7-(Cyclohexen-1-yl)-N-[4-[(6,7-dimethoxy-1,5-naphthyridin-4-yl)oxy]-3-fluorophenyl]-6-methyl-8-oxo-3,4-dihydro-1H-pyrido[2,1-c][1,4]oxazine-9-carboxamide], the IC50 on Human Axl and at Human KDR was no more than 100 nM each time.

As to `COc1cnc2c(Oc3ccc(NC(=O)c4c(C)n(C)c(C)c(C#N)c4=O)cc3F)ccnc2c1` [Compound 81, 5-Cyano-N-[3-fluoro-4-[(7-methoxy-1,5-naphthyridin-4-yl)oxy]phenyl]-1,2,6-trimethyl-4-oxopyridine-3-carboxamide], the IC50 at Human Axl and at Human KDR was greater than 300 nM in each case.

For `COc1cc2nccc(Oc3ccc(NC(=O)c4c(C)n(C)c(C)c(C#N)c4=O)cc3)c2nc1OC` [Compound 82, 5-Cyano-N-[4-[(6,7-dimethoxy-1,5-naphthyridin-4-yl)oxy]phenyl]-1,2,6-trimethyl-4-oxopyridine-3-carboxamide], the IC50 on Human Axl and against Human KDR was greater than 300 nM in each case.

For `COCCOc1cc2nccc(Oc3cc(F)c(NC(=O)c4c(C)n(C)c(C)c(C#N)c4=O)cc3F)c2nc1OC` [Compound 83, 5-Cyano-N-[2,5-difluoro-4-[[6-methoxy-7-(2-methoxyethoxy)-1,5-naphthyridin-4-yl]oxy]phenyl]-1,2,6-trimethyl-4-oxopyridine-3-carboxamide], the IC50 is 100 to 300 nM on Human Axl and greater than 300 nM against Human KDR.

As to `COc1cc2nccc(Oc3ccc(NC(=O)c4c(C)nc(C)c(C(N)=O)c4O)cc3F)c2nc1OC` [Compound 84, 3-N-[4-[(6,7-Dimethoxy-1,5-naphthyridin-4-yl)oxy]-3-fluorophenyl]-4-hydroxy-2,6-dimethylpyridine-3,5-dicarboxamide], the IC50 at Human Axl and on Human KDR was greater than 300 nM in each case.

As to `COc1cc2nccc(Oc3ccc(NC(=O)c4c(C)nc(C)c(C(N)=O)c4O)cc3)c2nc1OC` [Compound 85, 3-N-[4-[(6,7-Dimethoxy-1,5-naphthyridin-4-yl)oxy]phenyl]-4-hydroxy-2,6-dimethylpyridine-3,5-dicarboxamide], the IC50 at Human Axl and on Human KDR was greater than 300 nM each time.

Take `COCCOc1cc2nccc(Oc3cc(F)c(NC(=O)c4c(C)nc(C)c(C(N)=O)c4O)cc3F)c2nc1OC` [Compound 86, 3-N-[2,5-Difluoro-4-[[6-methoxy-7-(2-methoxyethoxy)-1,5-naphthyridin-4-yl]oxy]phenyl]-4-hydroxy-2,6-dimethylpyridine-3,5-dicarboxamide]: the IC50 at Human Axl and on Human KDR was greater than 300 nM throughout.

Take `COc1cc2nccc(Oc3ccc(NC(=O)c4c(C)nc(C)c(C#N)c4O)cc3F)c2nc1OC` [Compound 87, 5-Cyano-N-[4-[(6,7-dimethoxy-1,5-naphthyridin-4-yl)oxy]-3-fluorophenyl]-4-hydroxy-2,6-dimethylpyridine-3-carboxamide]: the IC50 against Human Axl was greater than 300 nM; against Human KDR, 100 to 300 nM.

For `COc1cc2nccc(Oc3ccc(NC(=O)c4c(C)n(C)c(C)c(N5CCOCC5)c4=O)cc3F)c2nc1OC` [Compound 88, N-[4-[(6,7-Dimethoxy-1,5-naphthyridin-4-yl)oxy]-3-fluorophenyl]-1,2,6-trimethyl-5-morpholin-4-yl-4-oxopyridine-3-carboxamide], the IC50 against Human Axl was no more than 100 nM; on Human KDR it was greater than 300 nM.

Regarding `COc1cc2nccc(Oc3ccc(NC(=O)c4c(C)n(C)c(C)c(N5CCCC5)c4=O)cc3F)c2nc1OC` [Compound 89, N-[4-[(6,7-Dimethoxy-1,5-naphthyridin-4-yl)oxy]-3-fluorophenyl]-1,2,6-trimethyl-4-oxo-5-pyrrolidin-1-ylpyridine-3-carboxamide], the IC50 at Human Axl and at Human KDR was no more than 100 nM in each case.

With `COc1cc2nccc(Oc3ccc(NC(=O)c4c(C)n(C)c(C)c(N5CCCCC5)c4=O)cc3F)c2nc1OC` [Compound 90, N-[4-[(6,7-dimethoxy-1,5-naphthyridin-4-yl)oxy]-3-fluorophenyl]-1,2,6-trimethyl-4-oxo-5-piperidin-1-ylpyridine-3-carboxamide], the IC50 was no more than 100 nM against Human Axl and 100 to 300 nM at Human KDR.

Turning to `COc1cnc2c(Oc3ccc(NC(=O)c4c(C)nc(C)c(C(N)=O)c4O)cc3F)ccnc2c1` [Compound 91, 3-N-[3-Fluoro-4-[(7-methoxy-1,5-naphthyridin-4-yl)oxy]phenyl]-4-hydroxy-2,6-dimethylpyridine-3,5-dicarboxamide], the IC50 against Human Axl and on Human KDR was greater than 300 nM throughout.

With `COc1cc2nccc(Oc3ccc(NC(=O)c4c(C)n(C)c(C)c(C(=O)O)c4=O)cc3F)c2nc1OC` [Compound 92, 5-[[4-[(6,7-Dimethoxy-1,5-naphthyridin-4-yl)oxy]-3-fluorophenyl]carbamoyl]-1,2,6-trimethyl-4-oxopyridine-3-carboxylic acid], the IC50 against Human Axl is greater than 300 nM; against Human KDR, 100 to 300 nM.
